According to paper PMC9481151, “Discovery of new symmetrical and asymmetrical nitrile-containing 1,4-dihydropyridine derivatives as dual kinases and P-glycoprotein inhibitors: synthesis, in vitro assays, and in silico studies” (Journal of Enzyme Inhibition and Medicinal Chemistry, 2022):

Columns and labels:
M14 = test: NCI single dose (10 µM) SRB screen; format: cell-based, human; details: melanoma, 48 h
MALME-3M = test: NCI single dose (10 µM) SRB screen; format: cell-based, human; details: melanoma, 48 h
NCI-H226 = test: NCI single dose (10 µM) SRB screen; format: cell-based, human; details: non-small cell lung cancer, 48 h
NCI 60 cancer cell lines = test: NCI single dose (10 µM) SRB screen, mean over panel; format: cell-based, human; details: mean over 60 cell lines, 48 h
SK-MEL-5 = test: NCI single dose (10 µM) SRB screen; format: cell-based, human; details: melanoma, 48 h
SF-295 = test: NCI single dose (10 µM) SRB screen; format: cell-based, human; details: CNS cancer, 48 h
A549/ATCC = test: NCI single dose (10 µM) SRB screen; format: cell-based, human; details: non-small cell lung cancer, 48 h
HOP-62 = test: NCI single dose (10 µM) SRB screen; format: cell-based, human; details: non-small cell lung cancer, 48 h
Escherichia coli = test: Agar well diffusion method
A498 = test: NCI single dose (10 µM) SRB screen; format: cell-based, human; details: renal cancer, 48 h
EKVX = test: NCI single dose (10 µM) SRB screen; format: cell-based, human; details: non-small cell lung cancer, 48 h
UACC-257 = test: NCI single dose (10 µM) SRB screen; format: cell-based, human; details: melanoma, 48 h
UO-31 = test: NCI single dose (10 µM) SRB screen; format: cell-based, human; details: renal cancer, 48 h
HOP-92 = test: NCI single dose (10 µM) SRB screen; format: cell-based, human; details: non-small cell lung cancer, 48 h
UACC-62 = test: NCI single dose (10 µM) SRB screen; format: cell-based, human; details: melanoma, 48 h
HCT-15 = test: NCI single dose (10 µM) SRB screen; format: cell-based, human; details: colon cancer, 48 h
BT-549 = test: NCI single dose (10 µM) SRB screen; format: cell-based, human; details: breast cancer, 48 h
HCT-116 = test: NCI single dose (10 µM) SRB screen; format: cell-based, human; details: colon cancer, 48 h
PC-3 = test: NCI single dose (10 µM) SRB screen; format: cell-based, human; details: prostate cancer, 48 h
RPMI-8226 = test: NCI single dose (10 µM) SRB screen; format: cell-based, human; details: leukaemia, 48 h
SK-MEL-2 = test: NCI single dose (10 µM) SRB screen; format: cell-based, human; details: melanoma, 48 h
MOLT-4 = test: NCI single dose (10 µM) SRB screen; format: cell-based, human; details: leukaemia, 48 h
NCI-H23 = test: NCI single dose (10 µM) SRB screen; format: cell-based, human; details: non-small cell lung cancer, 48 h
SNB-75 = test: NCI single dose (10 µM) SRB screen; format: cell-based, human; details: CNS cancer, 48 h
LOX IMVI = test: NCI single dose (10 µM) SRB screen; format: cell-based, human; details: melanoma, 48 h
HT29 = test: NCI single dose (10 µM) SRB screen; format: cell-based, human; details: colon cancer, 48 h
SNB-19 = test: NCI single dose (10 µM) SRB screen; format: cell-based, human; details: CNS cancer, 48 h
SK-OV-3 = test: NCI single dose (10 µM) SRB screen; format: cell-based, human; details: ovarian cancer, 48 h
HL-60(TB) = test: NCI single dose (10 µM) SRB screen; format: cell-based, human; details: leukaemia, 48 h
NCI-H322M = test: NCI single dose (10 µM) SRB screen; format: cell-based; details: non-small cell lung cancer, 48 h
U251 = test: NCI single dose (10 µM) SRB screen; format: cell-based, human; details: CNS cancer, 48 h
HCC-2998 = test: NCI single dose (10 µM) SRB screen; format: cell-based, human; details: colon cancer, 48 h
SF-268 = test: NCI single dose (10 µM) SRB screen; format: cell-based, human; details: CNS cancer, 48 h
Candida albicans = test: Agar well diffusion method
MDA-MB-231 = test: NCI single dose (10 µM) SRB screen; format: cell-based, human; details: breast cancer, 48 h
MDA-MB-468 = test: NCI single dose (10 µM) SRB screen; format: cell-based, human; details: breast cancer, 48 h
Staphylococcus aureus = test: Agar well diffusion method
CCRF-CEM = test: NCI single dose (10 µM) SRB screen; format: cell-based, human; details: leukaemia, 48 h
NCI-H522 = test: NCI single dose (10 µM) SRB screen; format: cell-based, human; details: non-small cell lung cancer, 48 h
SR = test: NCI single dose (10 µM) SRB screen; format: cell-based, human; details: leukaemia, 48 h
DU-145 = test: NCI single dose (10 µM) SRB screen; format: cell-based, human; details: prostate cancer, 48 h
ACHN = test: NCI single dose (10 µM) SRB screen; format: cell-based, human; details: renal cancer, 48 h
HS578T = test: NCI single dose (10 µM) SRB screen; format: cell-based, human; details: breast cancer, 48 h
Bacillus subtilis = test: Agar well diffusion method
MDA-MB-435 = test: NCI single dose (10 µM) SRB screen; format: cell-based, human; details: melanoma, 48 h
KM12 = test: NCI single dose (10 µM) SRB screen; format: cell-based, human; details: colon cancer, 48 h
MCF7 = test: NCI single dose (10 µM) SRB screen; format: cell-based, human; details: breast cancer, 48 h
CAKI-1 = test: NCI single dose (10 µM) SRB screen; format: cell-based, human; details: renal cancer, 48 h
NCI/ADR-RES = test: NCI single dose (10 µM) SRB screen; format: cell-based, human; details: ovarian cancer, 48 h
COLO 205 = test: NCI single dose (10 µM) SRB screen; format: cell-based, human; details: colon cancer, 48 h
SW-620 = test: NCI single dose (10 µM) SRB screen; format: cell-based, human; details: colon cancer, 48 h
TK-10 = test: NCI single dose (10 µM) SRB screen; format: cell-based, human; details: renal cancer, 48 h

**Q.** What does the source list for `CCOC(=O)C1=C(C)NC(C)=C(C(=O)OCC)C1c1cccc(C#N)c1` [Compound 1b, Diethyl 4-(3-cyanophenyl)-2,6-dimethyl-1,4-dihydropyridine-3,5-dicarboxylate]?
**A.** GI% M14 (M14): – (Only GI% ≥ 10 are shown); GI% MALME-3M (MALME-3M): – (Only GI% ≥ 10 are shown); GI% NCI-H226 (NCI-H226): – (Only GI% ≥ 10 are shown); Mean GI% (NCI 60 cancer cell lines): 8%; GI% SK-MEL-5 (SK-MEL-5): – (Only GI% ≥ 10 are shown); GI% SF-295 (SF-295): – (Only GI% ≥ 10 are shown); GI% A549/ATCC (A549/ATCC): – (Only GI% ≥ 10 are shown); GI% HOP-62 (HOP-62): – (Only GI% ≥ 10 are shown); zone of inhibition at 1000 µg/mL (Escherichia coli; Escherichia coli, 24 h, read-out: Diameter of inhibition zone, E. coli): 7 mm; % activity index, E. coli (Escherichia coli; relative to ciprofloxacin): 26.9%; GI% A498 (A498): – (Only GI% ≥ 10 are shown); GI% EKVX (EKVX): – (Only GI% ≥ 10 are shown); GI% UACC-257 (UACC-257): – (Only GI% ≥ 10 are shown); GI% UO-31 (UO-31): 13%; GI% HOP-92 (HOP-92): 10%; GI% UACC-62 (UACC-62): 20%; GI% HCT-15 (HCT-15): 23%; GI% BT-549 (BT-549): – (Only GI% ≥ 10 are shown); GI% HCT-116 (HCT-116): 11%; GI% PC-3 (PC-3): 20%; GI% RPMI-8226 (RPMI-8226): – (Only GI% ≥ 10 are shown); GI% SK-MEL-2 (SK-MEL-2): – (Only GI% ≥ 10 are shown); GI% MOLT-4 (MOLT-4): – (Only GI% ≥ 10 are shown); GI% NCI-H23 (NCI-H23): – (Only GI% ≥ 10 are shown); GI% SNB-75 (SNB-75): 38%; GI% LOX IMVI (LOX IMVI): – (Only GI% ≥ 10 are shown); GI% HT29 (HT29): – (Only GI% ≥ 10 are shown); GI% SNB-19 (SNB-19): – (Only GI% ≥ 10 are shown); GI% SK-OV-3 (SK-OV-3): – (Only GI% ≥ 10 are shown); GI% HL-60(TB) (HL-60(TB)): 13%; GI% NCI-H322M (NCI-H322M): – (Only GI% ≥ 10 are shown); GI% U251 (U251): – (Only GI% ≥ 10 are shown); GI% HCC-2998 (HCC-2998): – (Only GI% ≥ 10 are shown); GI% SF-268 (SF-268): – (Only GI% ≥ 10 are shown); zone of inhibition at 1000 µg/mL (Candida albicans; Candida albicans, 24 h, read-out: Diameter of inhibition zone, C. albicans): 15 mm; % activity index, C. albicans (Candida albicans; relative to clotrimazole): 55.5%; GI% MDA-MB-231 (MDA-MB-231): – (Only GI% ≥ 10 are shown); GI% MDA-MB-468 (MDA-MB-468): 22%; zone of inhibition at 1000 µg/mL (Staphylococcus aureus; Staphylococcus aureus, 24 h, read-out: Diameter of inhibition zone, S. aureus): 14 mm; % activity index, S. aureus (Staphylococcus aureus; relative to ciprofloxacin): 58.3%; GI% CCRF-CEM (CCRF-CEM): – (Only GI% ≥ 10 are shown); GI% NCI-H522 (NCI-H522): 12%; GI% SR (SR): 48%; GI% DU-145 (DU-145): – (Only GI% ≥ 10 are shown); GI% ACHN (ACHN): – (Only GI% ≥ 10 are shown); GI% HS578T (HS578T): 16%; zone of inhibition at 1000 µg/mL (Bacillus subtilis; Bacillus subtilis, 24 h, read-out: Diameter of inhibition zone, B. subtilis): 9 mm; % activity index, B. subtilis (Bacillus subtilis; relative to ciprofloxacin): 39.1%; GI% MDA-MB-435 (MDA-MB-435): 42%; GI% KM12 (KM12): 27%; GI% MCF7 (MCF7): 15%; GI% CAKI-1 (CAKI-1): 31%; GI% NCI/ADR-RES (NCI/ADR-RES): – (Only GI% ≥ 10 are shown); GI% COLO 205 (COLO 205): – (Only GI% ≥ 10 are shown); GI% SW-620 (SW-620): – (Only GI% ≥ 10 are shown); GI% TK-10 (TK-10): – (Only GI% ≥ 10 are shown)
